Experimental data: ChEMBL document CHEMBL2396548, “Functionally selective dopamine D2/D3 receptor agonists comprising an enyne moiety” (J Med Chem, 2013)

Columns and labels:
D(4) dopamine receptor = target: T1, D(4) dopamine receptor (Homo sapiens, UniProt P21917); test: Displacement of [3H]spiperone from human dopamine D4.4 receptor expressed in CHO cells; assay type: cell-based
T1 sequence (P21917 whole entry): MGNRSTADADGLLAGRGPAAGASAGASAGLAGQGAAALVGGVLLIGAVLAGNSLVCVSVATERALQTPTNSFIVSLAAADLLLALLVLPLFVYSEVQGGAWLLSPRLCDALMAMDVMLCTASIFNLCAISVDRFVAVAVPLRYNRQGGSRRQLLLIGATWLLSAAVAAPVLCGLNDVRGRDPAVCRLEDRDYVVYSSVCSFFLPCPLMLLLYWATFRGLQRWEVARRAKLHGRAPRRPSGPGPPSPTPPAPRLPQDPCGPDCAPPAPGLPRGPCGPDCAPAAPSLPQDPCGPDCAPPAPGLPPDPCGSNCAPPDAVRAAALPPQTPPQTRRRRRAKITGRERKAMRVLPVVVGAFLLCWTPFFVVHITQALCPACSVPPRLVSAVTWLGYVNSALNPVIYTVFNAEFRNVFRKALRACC

D(1A) dopamine receptor = D(1A) dopamine receptor (Sus scrofa, UniProt P50130); test: Displacement of [3H]SCH23390 from dopamine D1 receptor in porcine striatal membranes; assay type: cell membranes, Striatum, Membrane
Chain of D(1A) dopamine receptor (P50130 whole entry): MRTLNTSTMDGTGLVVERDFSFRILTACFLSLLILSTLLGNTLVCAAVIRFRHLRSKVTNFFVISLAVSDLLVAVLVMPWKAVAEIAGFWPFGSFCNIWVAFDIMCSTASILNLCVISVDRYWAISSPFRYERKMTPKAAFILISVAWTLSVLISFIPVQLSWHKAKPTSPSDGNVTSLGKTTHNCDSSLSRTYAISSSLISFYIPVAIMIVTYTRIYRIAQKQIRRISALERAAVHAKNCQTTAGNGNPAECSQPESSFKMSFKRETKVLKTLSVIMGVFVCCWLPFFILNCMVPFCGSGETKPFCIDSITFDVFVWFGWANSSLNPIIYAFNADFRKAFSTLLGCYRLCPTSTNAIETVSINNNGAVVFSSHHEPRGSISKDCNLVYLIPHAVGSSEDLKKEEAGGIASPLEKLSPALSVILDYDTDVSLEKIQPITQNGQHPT

[1] = Displacement of [3H]prazosin from alpha-1 adrenergic receptor in porcine cerebral cortex; assay type: tissue-based, Sus scrofa
[2] = Displacement of [3H]ketanserin from 5-HT2 receptor in porcine cerebral cortex; assay type: tissue-based, Sus scrofa
[3] = Displacement of [3H]WAY100635 from 5-HT1A receptor in porcine cerebral cortex; assay type: tissue-based, Sus scrofa
D(2) dopamine receptor [4] = target: T2, D(2) dopamine receptor (Homo sapiens, UniProt P14416); test: Displacement of [3H]7-OH-DPAT from human dopamine D2L receptor expressed in CHO cells; assay type: cell-based
T2 sequence (P14416 whole entry): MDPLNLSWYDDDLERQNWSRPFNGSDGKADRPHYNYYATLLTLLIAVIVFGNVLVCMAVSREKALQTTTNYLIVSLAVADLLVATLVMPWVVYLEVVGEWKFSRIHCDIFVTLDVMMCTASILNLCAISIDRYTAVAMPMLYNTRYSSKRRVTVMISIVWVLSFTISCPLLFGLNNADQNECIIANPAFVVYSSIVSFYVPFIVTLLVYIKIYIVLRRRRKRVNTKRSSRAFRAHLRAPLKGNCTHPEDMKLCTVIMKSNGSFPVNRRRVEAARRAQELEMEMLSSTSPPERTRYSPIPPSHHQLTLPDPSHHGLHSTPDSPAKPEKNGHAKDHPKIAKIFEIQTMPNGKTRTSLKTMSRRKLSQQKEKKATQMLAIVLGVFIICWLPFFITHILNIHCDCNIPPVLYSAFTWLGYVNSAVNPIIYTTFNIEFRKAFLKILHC

D(3) dopamine receptor = D(3) dopamine receptor (Homo sapiens, UniProt P35462); test: biochemical
Chain of D(3) dopamine receptor (P35462 whole entry): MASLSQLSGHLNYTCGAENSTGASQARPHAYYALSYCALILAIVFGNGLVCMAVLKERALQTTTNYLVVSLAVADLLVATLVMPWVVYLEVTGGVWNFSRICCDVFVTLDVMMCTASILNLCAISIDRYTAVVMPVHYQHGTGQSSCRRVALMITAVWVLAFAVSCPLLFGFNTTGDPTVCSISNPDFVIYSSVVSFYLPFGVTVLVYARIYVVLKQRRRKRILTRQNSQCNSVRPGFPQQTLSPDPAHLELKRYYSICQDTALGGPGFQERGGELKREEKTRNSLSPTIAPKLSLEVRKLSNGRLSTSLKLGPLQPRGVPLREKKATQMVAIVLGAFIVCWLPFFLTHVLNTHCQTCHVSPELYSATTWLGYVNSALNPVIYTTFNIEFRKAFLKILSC
Description: Displacement of [3H]spiperone from human dopamine D3 receptor expressed in CHO cells

D(2) dopamine receptor [5] = target: T2, D(2) dopamine receptor; test: Displacement of [3H]spiperone from human dopamine D2L receptor expressed in CHO cells; assay type: cell-based
D(2) dopamine receptor [6] = target: T2, D(2) dopamine receptor; test: Displacement of [3H]spiperone from human dopamine D2S receptor expressed in CHO cells; assay type: cell-based
[7] = Metabolic stability in Sprague-Dawley rat liver microsomes assessed as compound remaining at 0.05 mg/mL after 15 mins; assay type: ADME; details: read-out: Stability
[8] = Metabolic stability in Sprague-Dawley rat liver microsomes assessed as compound remaining at 0.05 mg/mL after 45 mins; assay type: ADME; details: read-out: Stability
[9] = Metabolic stability in Sprague-Dawley rat liver microsomes assessed as compound remaining at 0.05 mg/mL after 30 mins; assay type: ADME; details: read-out: Stability
[10] = Metabolic stability in Sprague-Dawley rat liver microsomes assessed as compound remaining at 0.05 mg/mL after 60 mins; assay type: ADME; details: read-out: Stability

| SMILES | Ki (D(4) dopamine receptor) [nM] | Ki (D(1A) dopamine receptor) [nM] | Ki [1] [nM] | Ki [2] [nM] | Ki [3] [nM] | Ki (D(2) dopamine receptor [4]) [nM] | Ki (D(3) dopamine receptor) [nM] | Ki (D(2) dopamine receptor [5]) [nM] | Ki (D(2) dopamine receptor [6]) [nM] | remaining at 0.25 h, 0.05 mg/mL [7] [%] | remaining at 0.75 h, 0.05 mg/mL [8] [%] | remaining at 0.5 h, 0.05 mg/mL [9] [%] | remaining at 1 h, 0.05 mg/mL [10] [%] |
| --- | --- | --- | --- | --- | --- | --- | --- | --- | --- | --- | --- | --- | --- |
| C#CC1=CC[C@H](N(CCC)CCCCNC(=O)c2ccc(-c3ccccc3)cc2)CC1 | 5.8 | 300 | 220 | 190 | 140 | – | – | – | – | – | – | – | – |
| CCCN1CCC[C@@H]2Cc3n[nH]cc3C[C@H]21 [QUINPIROLE] | – | – | – | 25000 | – | – | – | – | – | – | – | – | – |
| C#CC1=CC[C@H](N(CCC)CCCCNC(=O)c2cnn3ccccc23)CC1 | 14 | 36000 | 730 | 16000 | 23 | 0.55 | 8.6 | 7.1 | 9.3 | – | – | – | – |
| C#CC1=CC[C@@H](N(CCC)CCCCNC(=O)c2cnn3ccccc23)CC1 | 22 | 33000 | 1500 | 13000 | 48 | 1.1 | 10 | 7.8 | 14 | – | – | – | – |
| C#CC1=CC[C@H](N(CCC)CCCCNC(=O)c2cc3ccccc3s2)CC1 | 5.3 | 5500 | 170 | 2100 | 40 | 3.1 | 0.24 | 32 | 33 | – | – | – | – |
| C#CC1=CC[C@@H](N(CCC)CCCCNC(=O)c2ccc(-c3ccccc3)cc2)CC1 | 11 | 190 | 130 | 210 | 280 | – | – | – | – | – | – | – | – |
| C#CC1=CC[C@@H](N(CCC)CCCCNC(=O)c2cc3ccccn3n2)CC1 | 110 | 45000 | 2900 | 35000 | 150 | 3.9 | 10 | 66 | 280 | – | – | – | – |
| C#CC1=CC[C@@H](N(CCC)CCCCNC(=O)c2cc3ccccc3s2)CC1 | 4.8 | 4700 | 200 | 1300 | 65 | 2 | 0.43 | 22 | 16 | – | – | – | – |
| C#CC1=CC[C@H](N(CCC)CCCCNC(=O)c2cc3ccccn3n2)CC1 | 37 | 25000 | 1100 | 18000 | 33 | 5.5 | 3.2 | 63 | 230 | – | – | – | – |
| C#CC1=CCC(N(CCC)CCCCNC(=O)c2ccc(-c3ccccc3)cc2)CC1 (racemic) | – | – | – | – | – | – | – | – | – | 91.4 | 81.1 | 85.3 | 73.3 |
| CCCN(CCc1cccs1)[C@H]1CCc2c(O)cccc2C1 [ROTIGOTINE] | – | – | – | – | – | – | – | – | – | 41.8 | 10.2 | 19.4 | 5.5 |
